In assay [1] the target is T1, Tryptophan 2,3-dioxygenase (Homo sapiens, UniProt P48775). The assay is described as follows: Inhibition of N-terminal hexa-histidine tagged human TDO (19 to 388 residues) expressed in Escherichia coli Transetta (DE3) using L-tryptophan as substrate at 100 uM preincubated with enzyme for 10 mins followed by substrate addition and measured after 30 to 60 mins by microplate reader analysis relative to control. The conditions noted are these: time 40-70 min.
Target sequence in this assay (P48775 whole entry, looked up, the tested form may be a part): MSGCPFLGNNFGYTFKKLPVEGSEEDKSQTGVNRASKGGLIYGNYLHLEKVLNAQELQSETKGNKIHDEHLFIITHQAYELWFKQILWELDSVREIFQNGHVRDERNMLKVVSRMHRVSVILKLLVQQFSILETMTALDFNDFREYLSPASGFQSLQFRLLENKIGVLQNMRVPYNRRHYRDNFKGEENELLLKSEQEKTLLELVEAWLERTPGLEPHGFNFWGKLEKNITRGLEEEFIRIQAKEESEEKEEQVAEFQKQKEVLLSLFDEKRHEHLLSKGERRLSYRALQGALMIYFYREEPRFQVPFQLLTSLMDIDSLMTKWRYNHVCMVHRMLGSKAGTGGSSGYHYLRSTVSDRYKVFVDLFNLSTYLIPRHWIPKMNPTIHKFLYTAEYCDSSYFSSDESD

In assay [2] the target is T1, Tryptophan 2,3-dioxygenase. The assay is described as follows: Inhibition of N-terminal hexa-histidine tagged human TDO (19 to 388 residues) expressed in Escherichia coli Transetta (DE3) using L-tryptophan as substrate at 10 uM preincubated with enzyme for 10 mins followed by substrate addition and measured after 30 to 60 mins by microplate reader analysis relative to control. The conditions noted are these: time 40-70 min.
Target sequence in this assay (P48775 whole entry, looked up, the tested form may be a part): as above

The target of assay [3] is T1, Tryptophan 2,3-dioxygenase. The assay is described as follows: Inhibition of N-terminal hexa-histidine tagged human TDO (19 to 388 residues) expressed in Escherichia coli Transetta (DE3) using L-tryptophan as substrate preincubated with enzyme for 10 mins followed by substrate addition and measured after 30 to 60 mins by microplate reader analysis.
Target sequence in this assay (P48775 whole entry, the tested form may be a part): as the sequence (P48775 whole entry, looked up, the tested form may be a part) above
For assay [4], the target named is T2, Indoleamine 2,3-dioxygenase 1 (Homo sapiens, UniProt P14902). The assay is described as follows: Inhibition of N-terminal hexa-histidine tagged human IDO1 (12 to 403 residues) expressed in Escherichia coli Transetta (DE3) using L-tryptophan as substrate at 100 uM preincubated with enzyme for 10 mins followed by substrate addition and measured after 30 to 60 mins by microplate reader analysis relative to control. Conditions: time 40-70 min.
Target sequence in this assay (P14902 whole entry, looked up, the tested form may be a part): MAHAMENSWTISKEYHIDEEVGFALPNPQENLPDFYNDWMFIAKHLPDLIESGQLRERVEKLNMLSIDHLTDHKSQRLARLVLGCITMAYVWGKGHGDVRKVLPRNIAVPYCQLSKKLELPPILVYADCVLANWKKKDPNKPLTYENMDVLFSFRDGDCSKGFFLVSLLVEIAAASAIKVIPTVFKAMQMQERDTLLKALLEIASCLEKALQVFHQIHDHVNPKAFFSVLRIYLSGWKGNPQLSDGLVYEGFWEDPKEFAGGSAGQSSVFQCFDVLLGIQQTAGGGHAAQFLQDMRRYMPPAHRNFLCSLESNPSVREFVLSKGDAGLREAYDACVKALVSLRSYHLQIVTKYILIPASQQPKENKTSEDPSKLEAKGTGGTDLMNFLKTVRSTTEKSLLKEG

Assay [5] has as its target T2, Indoleamine 2,3-dioxygenase 1. The assay is described as follows: Inhibition of N-terminal hexa-histidine tagged human IDO1 (12 to 403 residues) expressed in Escherichia coli Transetta (DE3) using L-tryptophan as substrate at 10 uM preincubated with enzyme for 10 mins followed by substrate addition and measured after 30 to 60 mins by microplate reader analysis relative to control. Conditions: time 40-70 min.
Target sequence in this assay (P14902 whole entry, looked up, the tested form may be a part): as above

Assay [6] has the same target. The assay is described as follows: Inhibition of N-terminal hexa-histidine tagged human IDO1 (12 to 403 residues) expressed in Escherichia coli Transetta (DE3) using L-tryptophan as substrate preincubated with enzyme for 10 mins followed by substrate addition and measured after 30 to 60 mins by microplate reader analysis.
Target sequence in this assay (P14902 whole entry, the tested form may be a part): as the sequence (P14902 whole entry, looked up, the tested form may be a part) above

pIC50: −log10 of the molar value.

As a reminder, the inhibition is the drop in the measured response relative to a control, in per cent. Low values mean little suppression, high ones strong suppression. Broadly, the pIC50 is the IC50 on a negative log10 scale, so that one unit is a factor of ten. Read a high pIC50 as a low IC50. Regarding `FC(F)(F)c1cc(NCc2cccc(Br)c2)c2cn[nH]c2c1`, the inhibition in assay [1] turned out to be 84%; in assay [2], 67%; in assay [4] it was 51%; in assay [5] it was 23%. Besides, the negative-log IC50 (pIC50) in assay [3] was 4.72; in assay [6], less than 4.00.

Turning to `COC(=O)c1cc(NCc2ccccc2[N+](=O)[O-])c2cn[nH]c2c1`, the inhibition came to 20% in assay [1], 16% in assay [2], 47% in assay [4] and 11% in assay [5]. For the same compound, the negative logarithm of the IC50 (pIC50) in assay [3] and in assay [6] was less than 4.00 in each case.

For the compound `N#Cc1cc(NCc2ccccc2[N+](=O)[O-])c2cn[nH]c2c1`, the inhibition in assay [1] stood at 41%; in assay [2], 22%; in assay [4], 17%; in assay [5], 7%. Besides, the negative-log IC50 (pIC50) in assay [3] and in assay [6] was less than 4.00 each time.

Take `OC1CCCC(Nc2cccc(CNc3cc(C(F)(F)F)cc4[nH]ncc34)c2)C1` (stereo not drawn): the inhibition in assay [1] was found to be 23%; in assay [4], 2%. Moreover, the pIC50 in assay [3] and in assay [6] was less than 4.00 in each case.

For `CC(C)n1ncc2c(NCc3ccccc3[N+](=O)[O-])cc(C(F)(F)F)cc21`, the inhibition amounted to 32% in assay [1], 35% in assay [2], 13% in assay [4] and 7% in assay [5]. In addition, the negative-log IC50 (pIC50) in assay [3] and in assay [6] was less than 4.00 each time.

As to `O=[N+]([O-])c1ccccc1CNc1cccc2[nH]ncc12`, the inhibition in assay [1] was 87%; in assay [2], 45%; in assay [4], 65%; in assay [5], 25%. Also, the pIC50 in assay [3] was 4.77.

For `CNC(=O)c1cccc(CNc2cc(C(F)(F)F)cc3[nH]ncc23)c1`, the inhibition in assay [1] was 91%; in assay [2], 71%; in assay [4], 46%; in assay [5] it was 33%. Also, the pIC50 is 5.31 in assay [3] and less than 4.00 in assay [6].

For `FC(F)(F)c1cc(NCC2CNC2)c2cn[nH]c2c1`, the inhibition in assay [1] is 49%; in assay [2] it was 5%; in assay [4] it was 22%; in assay [5], 10%. Moreover, the negative logarithm of the IC50 (pIC50) in assay [3] and in assay [6] was less than 4.00 throughout.

On to `O=[N+]([O-])c1ccc2[nH]c(CNc3cc(C(F)(F)F)cc4[nH]ncc34)cc2c1`, for which the inhibition in assay [1] came to 69%; in assay [2], 54%; in assay [4], 38%; in assay [5], 22%. Besides, the pIC50 in assay [3] and in assay [6] was less than 4.00 in each case.

For `O=C(O)c1cccc(CNc2cc(C(F)(F)F)cc3[nH]ncc23)c1`, the inhibition in assay [1] was 94%; in assay [2] it was 81%; in assay [4] it was 17%; in assay [5] it was 11%. Besides, the results for the pIC50 in assay [3] and in assay [6] were 5.77 and less than 4.00, respectively.

As to `Oc1ccc(CNc2cc(C(F)(F)F)cc3[nH]ncc23)cc1`, the inhibition in assay [1] was 91%; in assay [2], 75%; in assay [4] it was 81%; in assay [5] it was 37%. Also, the pIC50 in assay [3] is 5.59; in assay [6], 4.43.

Turning to `Oc1ccc(CNc2cc(C(F)(F)F)cc3[nH]ncc23)c(Cl)c1`, the inhibition stood at 97% in assay [1], 92% in assay [2], 95% in assay [4] and 83% in assay [5]. The results for the negative-log IC50 (pIC50) in assay [3] and in assay [6] were 5.57 and 5.22, respectively.

`FC(F)(F)c1cc(NC[C@H]2CCCCN2)c2cn[nH]c2c1`: the inhibition is 90% in assay [1], 69% in assay [2], 69% in assay [4] and 19% in assay [5]. Also, the pIC50 was 6.34 in assay [3] and 4.62 in assay [6].

As for `Nc1cccc(CNc2cc(C(F)(F)F)cc3[nH]ncc23)c1`, the inhibition in assay [1] is 89%; in assay [2], 68%; in assay [4] it was 55%; in assay [5] it was 24%. Also, the pIC50 is 5.60 in assay [3] and less than 4.00 in assay [6].

Consider `NCCn1ncc2c(NCc3ccccc3[N+](=O)[O-])cc(C(F)(F)F)cc21`, for which the inhibition stood at 29% in assay [1], 25% in assay [2], 30% in assay [4] and 9% in assay [5]. Also, the pIC50 in assay [3] and in assay [6] was less than 4.00 each time.

Consider `FC(F)(F)c1cc(NCc2cccc3sccc23)c2cn[nH]c2c1`, for which the inhibition worked out at 5% in assay [1] and 3% in assay [4]. The pIC50 in assay [3] and in assay [6] was less than 4.00 throughout.

On to `O=[N+]([O-])c1ccccc1CNc1cc(Br)cc2[nH]ncc12`, for which the inhibition in assay [1] amounted to 64%; in assay [2], 52%; in assay [4], 83%; in assay [5] it was 67%. Besides, the pIC50 in assay [3] is 4.41; in assay [6], 5.09.

Consider `O=C1NCc2c(NCc3ccccc3[N+](=O)[O-])cccc21`, for which the inhibition in assay [1] came out at 29%; in assay [2] it was 23%; in assay [4], 9%; in assay [5], 8%. The pIC50 in assay [3] and in assay [6] was less than 4.00 each time.

For the compound `O=C1NC(=O)c2c(NCc3ccccc3[N+](=O)[O-])cccc21`, the inhibition in assay [1] was determined as 25%; in assay [2], 17%; in assay [4], 4%; in assay [5], 11%. Besides, the negative-log IC50 (pIC50) in assay [3] and in assay [6] was less than 4.00 in each case.

For `FC(F)(F)c1cccc(CNc2cc(C(F)(F)F)cc3[nH]ncc23)c1`, the inhibition in assay [1] came to 74%; in assay [2] it was 40%; in assay [4], 49%; in assay [5] it was 25%. In addition, the results for the pIC50 in assay [3] and in assay [6] were 4.91 and less than 4.00, respectively.

In the case of `O=[N+]([O-])c1cccc(CNc2cc(C(F)(F)F)cc3[nH]ncc23)c1`, the inhibition was determined as 82% in assay [1], 60% in assay [2], 69% in assay [4] and 45% in assay [5]. Moreover, the pIC50 in assay [3] was 5.29; in assay [6], less than 4.00.

As to `O=[N+]([O-])c1ccccc1CNc1cc(Br)cc2cn[nH]c12`, the inhibition amounted to 48% in assay [1], 35% in assay [2], 9% in assay [4] and 4% in assay [5]. The pIC50 in assay [3] and in assay [6] was less than 4.00 throughout.

In the case of `O=C(O)CNc1cccc(CNc2cc(C(F)(F)F)cc3[nH]ncc23)c1`, the inhibition in assay [1] was 65%; in assay [4], 8%. Besides, the negative logarithm of the IC50 (pIC50) in assay [3] and in assay [6] was less than 4.00 throughout.

Turning to `O=[N+]([O-])c1cc(OCc2ccccc2)ccc1CNc1cc(C(F)(F)F)cc2[nH]ncc12`, the inhibition was found to be 55% in assay [1], 49% in assay [2], 20% in assay [4] and 10% in assay [5]. In addition, the pIC50 was 4.01 in assay [3] and less than 4.00 in assay [6].

For the compound `O=[N+]([O-])c1ccc(CNc2cc(C(F)(F)F)cc3[nH]ncc23)cc1`, the inhibition in assay [1] worked out at 64%; in assay [2], 47%; in assay [4], 61%; in assay [5], 52%. In addition, the values for the pIC50 in assay [3] and in assay [6] were less than 4.00 and 4.21, respectively.

Values taken from ChEMBL document CHEMBL5108015, “4,6-Disubstituted-1H-Indazole-4-Amine derivatives with immune-chemotherapy effect and in vivo antitumor activity” (Eur J Med Chem, 2022).
